“Also recorded” adds a separate entry of the source.
Key:
LNCaP cells = assay: Proliferation assay (Cell Titer-Glo) in LNCaP cells; format: cell-based, human; settings: single agent, 6 days
DKO cells = assay: Proliferation assay (Cell Titer-Glo) in DKO cells; format: cell-based, mouse; settings: Compound A alone
Krt8 [1] = assay: Krt8 gene expression by qPCR in DKO cells; format: cell-based, mouse; settings: 8 days, enzalutamide 10 uM in the combination
[2] = tested on: LNCaP-AR CRISPRi TP53/RB1 cells; assay: Proliferation assay (Cell Titer-Glo) in LNCaP-AR CRISPRi TP53/RB1 cells; format: cell-based, human; settings: single agents, 6 days, LNCaP_AR guideTP53/RB1 cells
PC3 cells = assay: Proliferation assay (Cell Titer-Glo) in PC3 cells; format: cell-based, human; settings: single agent, 3 days, CellTiter Glo
Krt8 [3] = assay: Krt8 gene expression by qPCR in TKO cells; format: cell-based, mouse; settings: single agent, 8 days
VCaP cells = assay: Proliferation assay (Cell Titer-Glo) in VCaP cells; format: cell-based, human; settings: 3 days; enzalutamide 10 uM in the combination
TKO cells = assay: Proliferation assay (Cell Titer-Glo) in TKO cells; format: cell-based, mouse; settings: Compound A alone
LNCaP-AR cells = assay: Proliferation assay (Cell Titer-Glo) in LNCaP-AR cells; format: cell-based, human; settings: single agent, 3 days

Row | Compound | effect on proliferation of LNCaP cells (LNCaP cells) | effect on DKO cell proliferation (DKO cells) | induction of Keratin8 (Krt8) expression (Krt8 [1]) [fold] | effect on proliferation [2] | effect on cell proliferation of PC3 cells (PC3 cells) | concentration of Compound A able to induce the expression of Krt8 (Krt8 [3]) [µM] | effect on proliferation of VCaP cells (VCaP cells) | effect on TKO cell proliferation (TKO cells) | effect on cell proliferation (LNCaP-AR cells) | effect on proliferation ([2]; listed as ENZA)
1 | COc1ccc(-c2c(-c3ccc(C#N)c(F)c3)nc(N3CCC(N)CC3)n(C)c2=O)cc1F [Compound A, 4-[2-(4-amino-piperidin-1-yl)-5-(3-fluoro-4-methoxy-phenyl)-1-methyl-6-oxo-1,6-dihydro-pyrimidin-4-yl]-2-fluoro-benzonitrile] | no effect on proliferation; also recorded: did not affect proliferation | mild effect | 1.5 | do not affect proliferation; also recorded: did not affect proliferation | did not affect cell proliferation; also recorded: does not affect cell proliferation | ≥ 1 | no effect on proliferation; also recorded: did not affect proliferation | mild effect | no effect on cell proliferation | 
2 | CNC(=O)c1ccc(N2C(=S)N(c3ccc(C#N)c(C(F)(F)F)c3)C(=O)C2(C)C)cc1F [enzalutamide, 4-{3-[4-cyano-3-(trifluoromethyl)phenyl]-5,5-dimethyl-4-oxo-2-sulfanylideneimidazolidin-1-yl}-2-fluoro-N-methylbenzamide, reference compound] |  |  |  | do not affect proliferation | resistant |  |  |  |  | did not affect proliferation

Reference: patent US20230241063A1, “METHODS OF TREATING PROSTATE CANCER” (Celgene Quanticel Research, Inc., priority 2020, published 2023)
